According to patent US7045532B2 (Millennium Pharmaceuticals, Inc., priority 1999, dated 2006):

Key:
[1] = target: T1, Carboxypeptidase A (Bos taurus, UniProt P00730); assay: Carboxypeptidase A activity assay; type: biochemical; settings: Ki class; compounds tested in 5% DMSO, 12 compound concentrations
T1 sequence (P00730 111-419): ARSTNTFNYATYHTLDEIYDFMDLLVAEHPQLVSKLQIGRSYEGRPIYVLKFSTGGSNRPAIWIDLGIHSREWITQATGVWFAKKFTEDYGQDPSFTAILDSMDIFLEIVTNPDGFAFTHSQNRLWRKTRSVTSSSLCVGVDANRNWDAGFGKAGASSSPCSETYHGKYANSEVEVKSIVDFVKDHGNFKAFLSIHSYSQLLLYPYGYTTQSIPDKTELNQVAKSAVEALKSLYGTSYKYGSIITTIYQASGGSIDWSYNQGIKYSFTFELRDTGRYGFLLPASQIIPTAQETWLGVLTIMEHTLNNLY
Summary of the method: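 Ki obtained by correcting apparent Ki for substrate, Ki=Kiapp/(1+[S]/Km), from 12-concentration series. Enzyme activity read by absorbance at 328 nm with 5% DMSO present, EDTA stop.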

[2] = 34-day oral dosing in BBZDR rats (obesity and Type II diabetes model): body weight and metabolic parameters; type: in vivo; settings: for Adipose Mass / Adipose Mass, percent of placebo response / Core Temperature / Core Temperature, percent of placebo response / Food Consumption / Food Consumption, percent of placebo response / Incidence of Glycosuria (Days) / Incidence of Glycosuria (Days), incidence rate / Psoas Mass / Psoas Mass, percent of placebo response / Water Consumption / Water Consumption, percent of placebo response / Incidence of Diabetes: 34 days; for Incidence of Diabetes: animals
Text: The effects of Compound HE on body weight and metabolism were studied further in the BBZDR rat, a genetic model of obesity and Type II diabetes (Biomedical Research Models, Inc, Worcester, Mass.). BBZDR rats are a cross between the BBDR/W or strain and the fa/fa rat. In BBZDR rats, diabetes occurs in 98% of obese males at an average age of onset of 68±2 days. […] The pancreatic islets of the young obese diabetic males are profoundly enlarged with β cell hyperplasia and mild fibrosis. Studies of pancreatic sections immunostained for insulin and the GLUT-2 glucose transporter reveal focal reduction in β cell insulin content and a generalized reduction in GLUT-2 staining of β cell surface membranes. Lymphocytic insulitis is not detected in either lean or obese rats. In the absence of lymphopenia and autoimmunity, the lean BBZDR rats never become diabetic, and their pancreatic islets are normal in all respects.
Compound HE was administered to male BBZDR rats (48–60 days of age) via oral gavage for a period of 34 days. There were three treatment groups, each with 6 rats/group: a) placebo (1% carboxy methyl cellulose [CMC]), b) Compound HE at 100 mg/kg/day in 1% CMC, and c) Compound HE at 300 mg/kg/day in 1% CMC. The rats were gavaged twice daily for the entire period of the study. Body weight, food intake, fluid intake, and core body temperature were monitored on a daily basis. In addition, the rats were observed twice daily for any gross behavioral/phenotypic changes. Early in the study, two animals in the 300 mg/kg/day-dose group died from trauma secondary to oral gavage (confirmed during necropsy) and were excluded from all analyses.
On Day 21, after an overnight fast, whole blood, serum and plasma samples were collected from anesthetized animals. Prior to the termination of the study, tissue and plasma samples were collected from overnight-fasted animals for histological and biochemical analyses.

SMILES: CC(C)CC(N[C@@H](Cc1cncn1Cc1cc(Cl)cc(Cl)c1)C(=O)O)C(=O)O (single isomer, unassigned) [HE, 2-[1-Carboxy-2-[3-(3,5-dichloro-benzyl)-3H-imidazol-4-yl]-ethylamino)4-methyl-pentanoic acid]
- Ki [1]: 10 to 50 µM
- fluid intake, less than placebo ([2]; 100 mg-treated group): 5%
- food intake, less than placebo ([2]; 100 mg-treated group): 5%
- Fasted Glucose, Day 34, percent of placebo response ([2]; 100 mg/kg/day oral gavage): (100%)
- Fasted Insulin, Day 34 ([2]; 100 mg/kg/day oral gavage): 8.4 ± 7.0 ng/mL
- Fasted Insulin, Day 34, percent of placebo response ([2]; 100 mg/kg/day oral gavage): (62%)^a
- Fasted Leptin, Day 34 ([2]; 100 mg/kg/day oral gavage): 99 ± 22 ng/mL
- Fasted Leptin, Day 34, percent of placebo response ([2]; 100 mg/kg/day oral gavage): (102.7%)
- Fasted Total Cholest., Day 34 ([2]; 100 mg/kg/day oral gavage): 117 ± 9 mg/dL
- Fasted Total Cholest., Day 34, percent of placebo response ([2]; 100 mg/kg/day oral gavage): (88%)
- Total Fasted Triglyc., Day 34 ([2]; 100 mg/kg/day oral gavage): 409 ± 6 mg/dL
- Total Fasted Triglyc., Day 34, percent of placebo response ([2]; 100 mg/kg/day oral gavage): (82%)
- Weight Gain thru Day 34 ([2]; 100 mg/kg/day oral gavage): 123 ± 3.4 g
- Weight Gain thru Day 34, percent of placebo response ([2]; 100 mg/kg/day oral gavage): (83.9%)
- Adipose Mass ([2]; 100 mg/kg/day oral gavage): 48.03 ± 1.86 g
- Adipose Mass, percent of placebo response ([2]; 100 mg/kg/day oral gavage): (94%)
- Core Temperature ([2]; 100 mg/kg/day oral gavage): 98.4 ± 0.13 F.
- Core Temperature, percent of placebo response ([2]; 100 mg/kg/day oral gavage): (100%)
- Food Consumption ([2]; 100 mg/kg/day oral gavage): 1283 ± 50.3 g
- Food Consumption, percent of placebo response ([2]; 100 mg/kg/day oral gavage): (94.4%)
- Incidence of Glycosuria (Days) ([2]; 100 mg/kg/day oral gavage): 31/198
- Incidence of Glycosuria (Days), incidence rate ([2]; 100 mg/kg/day oral gavage): (15.7%)
- Psoas Mass ([2]; 100 mg/kg/day oral gavage): 1.30 ± 0.09 g
- Psoas Mass, percent of placebo response ([2]; 100 mg/kg/day oral gavage): (113%)
- Water Consumption ([2]; 100 mg/kg/day oral gavage): 1388 ± 73.5 mL
- Water Consumption, percent of placebo response ([2]; 100 mg/kg/day oral gavage): (94.6%)
- Incidence of Diabetes ([2]; 100 mg/kg/day oral gavage): 2/6
- fluid intake, less than placebo ([2]; 300 mg-treated group): 15%
- food intake, less than placebo ([2]; 300 mg-treated group): 8%
- Fasted Glucose, Day 34, percent of placebo response ([2]; 300 mg/kg/day oral gavage): (94%)
- Fasted Insulin, Day 34 ([2]; 300 mg/kg/day oral gavage): 7.7 ± 4.1 ng/mL
- Fasted Insulin, Day 34, percent of placebo response ([2]; 300 mg/kg/day oral gavage): (57%)^a
- Fasted Leptin, Day 34 ([2]; 300 mg/kg/day oral gavage): 92 ± 5.3 ng/mL
- Fasted Leptin, Day 34, percent of placebo response ([2]; 300 mg/kg/day oral gavage): (76%)
- Fasted Total Cholest., Day 34 ([2]; 300 mg/kg/day oral gavage): 104 ± 5 mg/dL
- Fasted Total Cholest., Day 34, percent of placebo response ([2]; 300 mg/kg/day oral gavage): (78%)
- Total Fasted Triglyc., Day 34 ([2]; 300 mg/kg/day oral gavage): 414 ± 23 mg/dL
- Total Fasted Triglyc., Day 34, percent of placebo response ([2]; 300 mg/kg/day oral gavage): (82%)
- Weight Gain thru Day 34 ([2]; 300 mg/kg/day oral gavage): 125 ± 8.3 g
- Weight Gain thru Day 34, percent of placebo response ([2]; 300 mg/kg/day oral gavage): (82.5%)
- Adipose Mass ([2]; 300 mg/kg/day oral gavage): 48.43 ± 0.55 g
- Adipose Mass, percent of placebo response ([2]; 300 mg/kg/day oral gavage): (94%)
- Core Temperature ([2]; 300 mg/kg/day oral gavage): 98.4 ± 0.20 F.
- Core Temperature, percent of placebo response ([2]; 300 mg/kg/day oral gavage): (100%)
- Food Consumption ([2]; 300 mg/kg/day oral gavage): 1249 ± 26.8 g
- Food Consumption, percent of placebo response ([2]; 300 mg/kg/day oral gavage): (91.9%)
- Incidence of Glycosuria (Days) ([2]; 300 mg/kg/day oral gavage): 12/162
- Incidence of Glycosuria (Days), incidence rate ([2]; 300 mg/kg/day oral gavage): (7.4%)
- Psoas Mass ([2]; 300 mg/kg/day oral gavage): 1.21 ± 0.10 g
- Psoas Mass, percent of placebo response ([2]; 300 mg/kg/day oral gavage): (105%)
- Water Consumption ([2]; 300 mg/kg/day oral gavage): 1271 ± 101.7 mL
- Water Consumption, percent of placebo response ([2]; 300 mg/kg/day oral gavage): (86.7%)
- Incidence of Diabetes ([2]; 300 mg/kg/day oral gavage): 1/4
- gross or histomorphological adverse effects ([2]; 34 consecutive days of oral dosing): No gross or histomorphological adverse effects
- gross abdominal adipose and psoas muscle mass and core body temperature, change between groups ([2]; all three groups): no changes
- plasma levels of insulin, total cholesterol and triglycerides compared to placebo ([2]; both dose groups): lower
- body weight gain over the 34 days, less than placebo ([2]; both dose groups (100 and 300 mg/kg/day)): approximately 18%
- statistical significance of the changes versus placebo ([2]; oral administration for 34 days): not statistically significant
